{"source": "patent US20190202823A1", "about": "“N-SULFONYLATED PYRAZOLO[3,4-b]PYRIDIN-6-CARBOXAMIDES AND METHOD OF USE” (AbbVie S.à.r.l., priority 2015, published 2019)", "key": {"ΔF508-CFTR [1]": {"target": "T1, ΔF508-CFTR (Homo sapiens, UniProt P13569, DEL508-508)", "T1 construct": "host or cells: CFBE41o- cells, doxycycline-inducible expression", "T1 sequence (P13569 with tags, fused parts or gaps DEL508-508)": "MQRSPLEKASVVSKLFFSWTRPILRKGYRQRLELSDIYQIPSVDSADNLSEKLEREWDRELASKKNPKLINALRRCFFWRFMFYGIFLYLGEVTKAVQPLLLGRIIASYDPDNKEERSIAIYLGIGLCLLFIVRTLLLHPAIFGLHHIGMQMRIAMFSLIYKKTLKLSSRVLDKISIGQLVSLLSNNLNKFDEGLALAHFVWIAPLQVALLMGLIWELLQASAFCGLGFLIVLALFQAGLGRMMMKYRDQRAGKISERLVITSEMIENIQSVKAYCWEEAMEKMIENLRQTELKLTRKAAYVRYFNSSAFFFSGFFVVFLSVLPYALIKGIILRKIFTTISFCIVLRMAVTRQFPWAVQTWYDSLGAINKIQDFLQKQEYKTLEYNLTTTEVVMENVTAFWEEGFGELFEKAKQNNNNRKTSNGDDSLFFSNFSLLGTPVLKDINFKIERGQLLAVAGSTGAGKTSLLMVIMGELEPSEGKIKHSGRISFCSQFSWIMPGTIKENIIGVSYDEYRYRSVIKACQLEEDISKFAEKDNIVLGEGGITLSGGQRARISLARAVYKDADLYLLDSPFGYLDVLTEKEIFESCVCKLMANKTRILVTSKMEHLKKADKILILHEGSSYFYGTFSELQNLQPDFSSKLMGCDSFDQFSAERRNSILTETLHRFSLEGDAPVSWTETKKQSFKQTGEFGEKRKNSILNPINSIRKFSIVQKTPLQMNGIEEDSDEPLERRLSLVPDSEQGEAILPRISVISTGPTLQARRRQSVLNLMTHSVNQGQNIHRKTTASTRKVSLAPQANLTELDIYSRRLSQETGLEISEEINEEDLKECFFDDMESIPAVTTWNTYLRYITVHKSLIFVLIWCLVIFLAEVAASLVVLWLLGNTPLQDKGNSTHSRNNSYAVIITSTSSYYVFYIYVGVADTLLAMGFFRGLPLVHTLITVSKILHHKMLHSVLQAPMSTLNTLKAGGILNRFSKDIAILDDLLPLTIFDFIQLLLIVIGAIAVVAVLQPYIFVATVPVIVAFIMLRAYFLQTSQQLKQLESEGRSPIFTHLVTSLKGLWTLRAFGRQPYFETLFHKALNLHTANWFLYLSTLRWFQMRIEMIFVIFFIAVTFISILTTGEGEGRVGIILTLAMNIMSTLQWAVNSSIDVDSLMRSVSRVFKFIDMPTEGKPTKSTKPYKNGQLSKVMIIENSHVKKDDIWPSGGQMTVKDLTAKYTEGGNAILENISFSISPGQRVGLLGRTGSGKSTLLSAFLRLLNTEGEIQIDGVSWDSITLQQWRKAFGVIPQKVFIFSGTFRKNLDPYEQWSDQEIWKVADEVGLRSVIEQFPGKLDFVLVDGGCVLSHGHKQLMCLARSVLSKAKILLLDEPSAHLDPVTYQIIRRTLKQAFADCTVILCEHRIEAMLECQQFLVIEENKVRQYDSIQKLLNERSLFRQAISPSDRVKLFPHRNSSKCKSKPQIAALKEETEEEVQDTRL", "assay": "CFTR cell surface levels using HRP-tagged ΔF508-CFTR expressing CFBE cells, in the presence of a co-corrector", "type": "cell-based", "details": "HRP-tagged ΔF508-CFTR CFBE41o- cells, with 3 μM co-corrector; for % Activation: positive control 3 μM co-corrector", "excerpt": "(§1) Measuring CFTR Cell Surface Levels Using HRP-Tagged ΔF508-CFTR Expressing CFBE Cells\n(§2) The HRP-tagged ΔF508-CFTR cell assay measures the expression of CFTR-ΔF508 at the plasma membrane. CFTR-ΔF508 has a folding defect leading to absence of protein at the plasma membrane. This assay is used to evaluate the capacity of compounds to increase the expression of CFTR-ΔF508 at the plasma membrane. […] When HRP-tagged ΔF508-CFTR is present at the plasma membrane, the HRP enzyme activity can be measured. The amount of CFTR-ΔF508 that can be rescued to the plasma membrane is correlated with the amount of functional enzyme that can be measured.\n(§3) There are several ways to measure the capacity of compounds to rescue CFTR-ΔF508 to the plasma membrane; either compounds are evaluated on their own and the impact on plasma membrane levels is measured or compounds are evaluated in combination with a co-corrector, i.e. a compound that rescues CFTR-ΔF508 to the plasma membrane but rescue can be enhanced by addition of compounds due to a complementary mode of action.\nActivity of Compounds in Combination with Co-Corrector:\nOn day four, 10 μL of test compounds diluted in PBS (phosphate buffered saline) were added to the plates at a final DMSO concentration of 0.1%. In order to measure compound synergy with a co-corrector, 3 μM co-corrector (3-[(2R,4R)-4-({[1-(2,2-difluoro-1,3-benzodioxol-5-yl)cyclopropyl]carbonyl}amino)-7-methoxy-3,4-dihydro-2H-chromen-2-yl]benzoic acid) was added along with test compounds. All compound plates contained negative controls (DMSO) and positive controls (3 μM co-corrector). Cell plates were incubated at 33° C., 5% CO2 for 20 hours. […] After incubation for 15 minutes in the dark, the chemiluminescence was measured using a plate reader (EnVision®, Perkin Elmer). Raw data were normalized to percentage activity values using the equation: 100×(Sample−Negative control)/(Positive control−Negative Control)."}, "ΔF508-CFTR [2]": {"target": "T1, ΔF508-CFTR", "assay": "CFTR cell surface levels using HRP-tagged ΔF508-CFTR expressing CFBE cells, intrinsic corrector capacity", "type": "cell-based", "set-up": "% Activation: concentration or dose not given beside the values", "details": "HRP-tagged ΔF508-CFTR expressing CFBE41o- cells; compounds alone (intrinsic corrector capacity); 20 hours at 33° C.", "excerpt": "as §1, §2, §3\nActivity of Compounds for their Intrinsic Corrector Capacity:\nOn day four, L test compounds diluted in PBS were added to the plates at a final DMSO concentration of 0.1%. All compound plates contained negative controls (DMSO) and positive controls ([…] corrector, 3-[(2R,4R)-4-({[1-(2,2-difluoro-1,3-benzodioxol-5-yl)cyclopropyl]carbonyl}amino)-7-methoxy-3,4-dihydro-2H-chromen-2-yl]benzoic acid). Cell plates were incubated at 33° C., 5% CO2 for 20 hours. […] After incubation for 15 minutes in the dark, chemiluminescence was measured using a plate reader (EnVision®, Perkin Elmer). Raw data were normalized to percentage activity values using the equation: 100×(Sample−Negative control)/(Positive control−Negative Control)."}}, "data": [{"smiles": "Cc1nn(C2CCCCC2)c2nc(C(=O)NS(C)(=O)=O)cc(-c3ccc(N4CCOCC4)nc3)c12", "note": "[compound 47]", "values": [{"measurement": "EC50", "setting": "ΔF508-CFTR [1]", "result": 1600, "unit": "nM"}]}, {"smiles": "CS(=O)(=O)NC(=O)c1cc(OCCCN2CCCCC2)c2c(C3CCC3)nn(-c3ccccc3)c2n1", "note": "[compound 314]", "values": [{"measurement": "EC50", "setting": "ΔF508-CFTR [1]", "result": 692, "unit": "nM"}]}, {"smiles": "COCC1CCN(Cc2cc(C(=O)NS(=O)(=O)N(C)C)nc3c2c(C2CCC2)nn3-c2ccc(F)cc2)CC1", "note": "[compound 521]", "values": [{"measurement": "EC50", "setting": "ΔF508-CFTR [2]", "result": 10000, "unit": "nM"}]}, {"smiles": "CC(c1ccc(-c2cc(C(=O)NS(=O)(=O)N(C)C)nc3c2c(C2CCC2)nn3C2CCCCC2)cc1)N1CCOCC1", "note": "(stereo not drawn) [compound 543]", "values": [{"measurement": "EC50", "setting": "ΔF508-CFTR [1]", "result": 39.2, "unit": "nM"}]}, {"smiles": "CN(C)S(=O)(=O)NC(=O)c1cc(N2CCC(N3CCC(C#N)C3)CC2)c2c(C3CCC3)nn(-c3ccc(F)cc3)c2n1", "note": "(stereo not drawn) [compound 561]", "values": [{"measurement": "EC50", "setting": "ΔF508-CFTR [1]", "result": 42, "unit": "nM"}]}, {"smiles": "CC(C)N1CCC(c2cc(C(=O)NS(=O)(=O)N(C)C)nc3c2c(C2CCC2)nn3-c2ccc(F)cc2)CC1", "note": "[compound 598]", "values": [{"measurement": "EC50", "setting": "ΔF508-CFTR [2]", "result": 10000, "unit": "nM"}]}, {"smiles": "CN(C)S(=O)(=O)NC(=O)c1cc(C2CCN(CCC(F)(F)F)CC2)c2c(C3CCC3)nn(-c3ccc(F)cc3)c2n1", "note": "[compound 604]", "values": [{"measurement": "% Activation", "setting": "ΔF508-CFTR [1]", "result": 269.3, "unit": "%"}]}, {"smiles": "CN(C)S(=O)(=O)NC(=O)c1cc(C2CCN(CC3CC3)CC2)c2c(C3CCC3)nn(-c3ccc(F)cc3)c2n1", "note": "[compound 613]", "values": [{"measurement": "EC50", "setting": "ΔF508-CFTR [2]", "result": 10000, "unit": "nM"}]}, {"smiles": "CC(C)Oc1nn(C2CCCCC2)c2nc(C(=O)NS(C)(=O)=O)cc(-c3ccc(C4(C#N)CCN(C)CC4)cc3)c12", "note": "[compound 639]", "values": [{"measurement": "% Activation", "setting": "ΔF508-CFTR [2]", "result": 238.35, "unit": "%"}, {"measurement": "EC50", "setting": "ΔF508-CFTR [2]", "result": 132, "unit": "nM"}, {"measurement": "EC50", "setting": "ΔF508-CFTR [1]", "result": 74.4, "unit": "nM"}, {"measurement": "% Activation", "setting": "ΔF508-CFTR [1]", "result": 464.55, "unit": "%"}]}]}
